System: pancreatic cancer
Experiment: Overall survival of pancreatic cancer patients treated with gemcitabine (reference population, blood taken before treatment)
Format: in vivo, Homo sapiens
Settings: patients treated with gemcitabine who have the genetic pro-metastatic fingerprint
Experimental: Samples of whole blood from 61 patients, taken before treatment, packaged in PAXgene tubes in dry ice (supplier: LabConnect, United States) were received and stored at −80° C. They were designated “week 0”.
The RNA samples were divided into 2 groups: • M4: corresponding to the patients who received gemcitabine after collection of the reference blood samples, and who died before month 4; • M15: corresponding to the patients who received gemcitabine after collection of the reference blood samples, and were alive after month 15.
An additional pharmacogenomic study was also carried out. Samples of the RNA from blood from 61 patients were taken before any treatment, and they were analysed by RT-PCR.
The patients treated with gemcitabine who have the genetic pro-metastatic fingerprint have a low overall survival rate (OS) (5.0 months).

`Nc1ccn([C@@H]2O[C@H](CO)[C@@H](O)C2(F)F)c(=O)n1` [Gemcitabine] was tested. Which overall survival time did it give?
The overall survival time was 5.0 months.
